The values that follow come from patent US9994886B2, “Modified Epstein-Barr virus DNA polymerase and methods for isothermal DNA amplification” (priority 2013, dated 2018).

One data set deals with T1, EBVpol (Epstein-Barr virus, UniProt P03198).
T1 construct: Ac-BALF5 baculovirus vector, an expression plasmid vector bearing the full-length BALF5 gene; made in house; host or cells: Sf9 insect cells, recombinant baculoviruses pAc-BALF5 and pAc-BMRF1
The experiment in a line: Inhibition of EBVpol activity at high salt. The data set is classed as biochemical. Conditions: 20 mM PAA. The method, then:
(§1) When assayed in the presence of BMRF1, its activity on CT DNA at 100 mM ammonium sulfate was greater than 100-fold increased over its activity alone, in the absence of salt.

The test system of data set [1] is activated calf thymus DNA. As to the kind of experiment: DNA polymerase assay, incorporation of [32P]-dCMP into trichloroacetic acid-precipitable material. The data set is classed as biochemical. Conditions: 100 mM ammonium sulfate; polypeptides in equimolar ratios. On the procedure: The activity of the bacterially-expressed purified BMRF1(1-303)(“ΔC303”) polypeptide was examined in a DNA polymerase assay which measured incorporation of [^32P]-α-dCMP into trichloroacetic acid-precipitable material using activated calf thymus DNA and [^32P]-α-dCTP as the substrates in the presence of 100 mM ammonium sulfate (Tsurumi, T., T. Daikoku, and Y. Nishiyama, J Virol, 1994, 68(5): p. 3354-63). The BALF5 catalytic DNA polymerase subunit was obtained by expression in insect cells from the Ac-BALF5 baculovirus and purified by phosphocellulose and heparin affinity chromatography. The polypeptides were assayed in equimolar ratios and the specific activity (micromoles of dCMP incorporation per milligram of protein per hour) is shown in Table 3.
The GST-BMRF1 (1-303) polypeptide was bound to glutathione-agarose as described previously and cleaved overnight with 1/50 (w/w) factor Xa (NEBioLabs, Ipswich, Mass.) in 1 mM CaCl2. The cleaved BMRF1 (1-303) was then purified on DNA-cellulose, eluting at 300-500 mM NaCl. SDS-PAGE analysis confirmed the size of the uncleaved GST-BMRF1 (1-303) and the purified cleaved BMRF1 (1-303). The purified BMRF1 (1-303) was then shown to stimulate purified baculovirus-expressed BALF5 in 100 mM ammonium sulfate (see Table 3).

Data set [2] has as its system activated calf thymus (CT) DNA. As to the kind of experiment: DNA polymerase elongation activity of purified BALF5 on activated calf thymus DNA. The data set is classed as biochemical. On the procedure: as §1
Another data set deals with T2, GST-BMRF1(1-303) (Epstein-Barr virus, UniProt P03191).
T2 construct: A GST fusion with BMRF1 residues 1-303 was constructed and expressed in E. coli BL21*DE3; made in house; host or cells: E. coli BL21*DE3
T2 sequence (P03191 1-303): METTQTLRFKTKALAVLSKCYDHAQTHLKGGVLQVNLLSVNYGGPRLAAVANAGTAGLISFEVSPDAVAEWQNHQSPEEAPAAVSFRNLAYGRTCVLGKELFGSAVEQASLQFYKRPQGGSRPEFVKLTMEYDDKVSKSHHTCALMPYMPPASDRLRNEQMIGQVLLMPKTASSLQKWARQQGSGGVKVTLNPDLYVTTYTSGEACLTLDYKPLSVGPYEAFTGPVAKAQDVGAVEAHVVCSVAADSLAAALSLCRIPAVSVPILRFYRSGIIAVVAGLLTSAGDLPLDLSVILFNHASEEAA
As to the kind of experiment: Binding of radiolabeled BALF5-deletion polypeptides to GST-BMRF1(1-303). Conditions: 100 mM ammonium sulfate; [35S]-methionine labeled in vitro translated polypeptides. On the procedure:
(§2) To determine if the extreme carboxyl terminus of the EBV BALF5 subunit is necessary for functional interaction with BMRF1, a series of deletions of the BALF5 open reading frame was constructed in the pYES-X2 vector and [^35S]-methionine labeled polypeptides were expressed by in vitro transcription-translation as described (Kiehl, A. and D. I. Dorsky, J Virol, 1995, 69(3): p. 1669-77). These radiolabeled BALF5-deletion polypeptides were then assayed for binding to GST-BMRF1(1-303) in 100 mM ammonium sulfate. In vitro translated BALF5 bound to GST-BMRF1(1-303) but not to GST alone.

A further data set addresses T3, GST (Schistosoma japonicum, UniProt P08515).
T3 construct: made in house; host or cells: E. coli (bacterial extract)
The experiment in a line: Non-specific binding of in vitro translated BALF5 to GST. On the procedure:
as §2
A GST fusion with BMRF1 residues 1-303 was constructed and expressed in E. coli BL21*DE3 as a soluble 58 kDa protein which bound specifically to glutathione-agarose. Glutathione agarose beads were incubated in bacterial extract containing either 27 kDa wild-type GST or 58 kDa GST-BMRF1 and extensively washed in PBS, or 50 mM Tris-HCl, pH 8.0 containing 0, 50, 100, 150, or 200 mM ammonium sulfate. The beads were then incubated in the same wash buffers in the presence of [^35S]-methionine labeled in vitro translated BALF5, and then the beads were washed extensively at the same salt concentrations as the incubations. The washed beads were boiled in SDS sample buffer and the eluted proteins were analyzed by SDS-PAGE/fluorography. […]

The next data set has as its target T4, GST-BMRF1 fusion (Epstein-Barr virus, UniProt P03191).
T4 construct: A GST fusion with BMRF1 residues 1-303 was constructed and expressed in E. coli BL21*DE3; made in house; host or cells: E. coli BL21*DE3
T4 sequence (P03191 1-303): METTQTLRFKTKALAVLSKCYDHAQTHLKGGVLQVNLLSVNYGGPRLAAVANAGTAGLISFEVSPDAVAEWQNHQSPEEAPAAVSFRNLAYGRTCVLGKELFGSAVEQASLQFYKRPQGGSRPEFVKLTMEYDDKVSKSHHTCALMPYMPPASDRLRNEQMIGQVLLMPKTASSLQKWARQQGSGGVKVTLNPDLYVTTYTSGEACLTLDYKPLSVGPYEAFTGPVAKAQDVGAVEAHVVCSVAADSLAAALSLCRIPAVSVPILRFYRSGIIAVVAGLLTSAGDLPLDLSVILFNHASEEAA
As to the kind of experiment: GST-BMRF1 fusion binding to BALF5 on glutathione agarose beads at varied salt. On the procedure: A GST fusion with BMRF1 residues 1-303 was constructed and expressed in E. coli BL21*DE3 as a soluble 58 kDa protein which bound specifically to glutathione-agarose. Glutathione agarose beads were incubated in bacterial extract containing either 27 kDa wild-type GST or 58 kDa GST-BMRF1 and extensively washed in PBS, or 50 mM Tris-HCl, pH 8.0 containing 0, 50, 100, 150, or 200 mM ammonium sulfate. The beads were then incubated in the same wash buffers in the presence of [^35S]-methionine labeled in vitro translated BALF5, and then the beads were washed extensively at the same salt concentrations as the incubations. The washed beads were boiled in SDS sample buffer and the eluted proteins were analyzed by SDS-PAGE/fluorography. Measures taken to avoid the copurification of nucleic acids included washing the column at 600 mM NaCl and application of DNase to the column. And SDS-PAGE analysis was used to monitor GST-BMRF1 (1-303). […] Non-specific binding of BALF5 to the 27 kDa GST was very weak and independent of salt concentration.

The test system of a further data set is oligo dG:poly dC. The experiment in a line: Activity on synthetic primer:template, GC preference. It is filed as biochemical. The source says: EBVpol and the modified EBVpol of this invention have strong amplification activity on GC-rich regions of DNA sequences; EBV DNA polymerase has 29-fold greater activity on synthetic oligo dG:poly dC (primer:template) compared to oligo dA:poly dT. GC-rich DNA sequences are the most difficult-to-amplify DNA sequences. […] Thus, the GC-preference of EBVpol and its variants makes EBVpol and its variants preferred reagents for whole genome amplification (“WGA”).

Data set [3] deals with singly-primed M13mp18 single-stranded DNA circle. Conditions: cited from earlier work.
For data set [4] the following is noted: BALF5 combined with BMRF1; cited from earlier work.

T1 sequence (P03191 whole entry): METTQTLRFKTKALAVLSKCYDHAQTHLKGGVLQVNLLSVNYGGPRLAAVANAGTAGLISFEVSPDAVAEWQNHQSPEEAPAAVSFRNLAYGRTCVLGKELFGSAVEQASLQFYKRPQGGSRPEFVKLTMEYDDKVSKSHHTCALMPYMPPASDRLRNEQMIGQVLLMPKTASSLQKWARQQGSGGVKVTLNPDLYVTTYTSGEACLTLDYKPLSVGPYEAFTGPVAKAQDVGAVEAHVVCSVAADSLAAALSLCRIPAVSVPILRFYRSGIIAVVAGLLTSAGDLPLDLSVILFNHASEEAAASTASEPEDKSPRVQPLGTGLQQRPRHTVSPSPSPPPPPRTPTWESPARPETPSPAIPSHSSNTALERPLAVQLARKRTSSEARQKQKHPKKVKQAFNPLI
T1 sequence (P03198 whole entry, added parts left off): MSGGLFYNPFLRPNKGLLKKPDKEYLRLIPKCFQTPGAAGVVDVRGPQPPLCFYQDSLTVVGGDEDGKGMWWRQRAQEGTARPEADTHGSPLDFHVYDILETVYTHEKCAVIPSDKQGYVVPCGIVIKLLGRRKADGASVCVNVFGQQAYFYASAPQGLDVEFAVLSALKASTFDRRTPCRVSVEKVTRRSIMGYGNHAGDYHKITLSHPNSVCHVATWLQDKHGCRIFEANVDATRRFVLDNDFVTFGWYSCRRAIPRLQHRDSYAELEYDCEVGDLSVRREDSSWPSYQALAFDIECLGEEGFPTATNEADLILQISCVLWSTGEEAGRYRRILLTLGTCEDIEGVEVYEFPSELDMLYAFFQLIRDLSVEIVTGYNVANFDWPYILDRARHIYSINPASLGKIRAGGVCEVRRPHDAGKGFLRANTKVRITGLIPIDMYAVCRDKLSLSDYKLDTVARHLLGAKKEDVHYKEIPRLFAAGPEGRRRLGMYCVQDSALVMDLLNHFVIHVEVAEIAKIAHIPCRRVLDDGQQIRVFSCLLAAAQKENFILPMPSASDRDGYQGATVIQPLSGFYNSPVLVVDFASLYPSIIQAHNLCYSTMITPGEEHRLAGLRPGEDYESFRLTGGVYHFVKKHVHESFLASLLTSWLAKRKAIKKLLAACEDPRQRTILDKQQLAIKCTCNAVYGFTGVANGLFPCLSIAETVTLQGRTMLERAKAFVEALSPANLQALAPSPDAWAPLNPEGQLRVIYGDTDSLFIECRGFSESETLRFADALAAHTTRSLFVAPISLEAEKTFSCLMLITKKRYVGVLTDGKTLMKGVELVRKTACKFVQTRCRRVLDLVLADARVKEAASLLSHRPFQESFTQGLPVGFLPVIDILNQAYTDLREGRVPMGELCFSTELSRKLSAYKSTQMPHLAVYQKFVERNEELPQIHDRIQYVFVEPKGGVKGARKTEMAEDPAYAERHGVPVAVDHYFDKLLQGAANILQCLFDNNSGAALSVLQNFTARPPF
T3 sequence (P08515 whole entry): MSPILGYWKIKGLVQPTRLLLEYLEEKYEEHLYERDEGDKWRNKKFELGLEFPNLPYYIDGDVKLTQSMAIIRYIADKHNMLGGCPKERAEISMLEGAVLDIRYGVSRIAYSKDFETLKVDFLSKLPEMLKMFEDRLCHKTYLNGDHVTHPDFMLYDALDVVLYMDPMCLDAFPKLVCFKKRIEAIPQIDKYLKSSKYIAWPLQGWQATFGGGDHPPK

As a reminder, the inhibition is how much of the control response was suppressed. Turning to `O=C(O)CP(=O)(O)O` [PAA, phosphonoacetic acid], the inhibition at 20000 µM on EBVpol is 60%.
For the molecule “BALF5: 116-kDa catalytic subunit of EBV DNA polymerase with intrinsic 3′-5′ exonuclease activity, SEQ ID NO. 8”, the “Specific Activity” value in [1] is recorded as 1.7 micromoles of dCMP incorporation per milligram of protein per hour. Besides, the “DNA polymerase elongation activity on activated CT DNA” value in data set [2] (100 mM ammonium sulfate, BALF5 alone) was “completely inactive”; in data set [2] (low ionic strength), “significant DNA polymerase elongation activity”. The “increase of activity on CT DNA over its activity alone in the absence of salt” value in [2] (in the presence of BMRF1, 100 mM ammonium sulfate) is listed as “greater than 100 fold”. Besides, in the data set with GST-BMRF1(1-303), the “binding to GST-BMRF1(1-303)” value is “bound”. Further, the “binding to GST alone” value in the data set with GST is listed as “very weak”. Moreover, the “binding to the GST-BMRF1 fusion” value with GST-BMRF1 fusion (0 and 200 mM ammonium sulfate) was “bind poorly”; with GST-BMRF1 fusion (PBS and 50-150 mM ammonium sulfate) it was “bound efficiently”.
With “EBV DNA polymerase holoenzyme: 1:1 complex of BALF5 catalytic subunit and BMRF1 processivity factor”, the “activity on oligo dG:poly dC compared to oligo dA:poly dT” value in the data set with oligo dG:poly dC is on record as 29 fold. Moreover, the “strand-displacement activity (SDA)” value in data set [3] was “possesses signification SDA”. In addition, the rate of incorporation result in data set [3] (singly-primed M13mp18 single-stranded DNA circle) is “approximately 7200 nucleotides in 10 minutes”. In addition, in data set [4], the “ionic strength optimum of processive primer-dependent DNA synthesis” value is 150 mM ammonium sulfate.

B1: ΔC303: BMRF1 with deletion of the C-terminal 101 amino acids (residues 1-303) (protein)
chain: METTQTLRFKTKALAVLSKCYDHAQTHLKGGVLQVNLLSVNYGGPRLAAVANAGTAGLISFEVSPDAVAEWQNHQSPEEAPAAVSFRNLAYGRTCVLGKELFGSAVEQASLQFYKRPQGGSRPEFVKLTMEYDDKVSKSHHTCALMPYMPPASDRLRNEQMIGQVLLMPKTASSLQKWARQQGSGGVKVTLNPDLYVTTYTSGEACLTLDYKPLSVGPYEAFTGPVAKAQDVGAVEAHVVCSVAADSLAAALSLCRIPAVSVPILRFYRSGIIAVVAGLLTSAGDLPLDLSVILFNHASEEAA
Turning to B1, the “Specific Activity” value in data set [1] is given as 0.2 micromoles of dCMP incorporation per milligram of protein per hour.
